The compounds below were run against T1, CCXCKR2 receptor (Homo sapiens, UniProt P25106) (assay: Displacement of 125I-labeled SDF-1 from the CCXCKR2 receptor on MCF-7 and/or CCXCKR2-transfected MDA-MB-435S cells (radioligand binding, filtration)). Details: 125I SDF-1, 3 hr at 4° C., MCF-7 and/or MDA-MB-435S cells; read-out: Activity (concentration displacing at least 50% of the SDF-1 from the CCXCKR2 receptor).
T1 construct: expressed in transfected cells; host or cells: MDA-MB-435S transfected with pcDNA3.1(+)-hRDC1 and/or MCF-7 (endogenous receptor)
T1 sequence (P25106 whole entry): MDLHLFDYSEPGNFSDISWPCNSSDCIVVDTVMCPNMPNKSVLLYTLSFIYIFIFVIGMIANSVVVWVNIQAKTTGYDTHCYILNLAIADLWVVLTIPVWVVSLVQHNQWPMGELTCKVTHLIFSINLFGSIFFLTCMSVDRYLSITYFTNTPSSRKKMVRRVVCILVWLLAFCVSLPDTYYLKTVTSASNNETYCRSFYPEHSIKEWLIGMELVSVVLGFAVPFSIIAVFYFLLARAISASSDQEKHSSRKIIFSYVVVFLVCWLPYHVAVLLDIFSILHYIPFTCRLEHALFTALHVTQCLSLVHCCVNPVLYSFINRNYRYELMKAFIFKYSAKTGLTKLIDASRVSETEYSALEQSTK

**Q.** For O=C(c1ccc(Cl)c(F)c1)c1cn(Cc2cccc(Br)n2)c2ccccc2c1=O [Example 179], which IC50 is on record?
**A.** The IC50 was less than 0.1 µM.

**Q.** How did the IC50 turn out when CN(C)C(=O)c1cccc(C(=O)c2cn(Cc3cccc(Br)n3)c3ccccc3c2=O)c1 [Example 180] was run?
**A.** The IC50 was less than 0.1 µM.

**Q.** Which IC50 does the source give for COc1ccc(C(=O)c2cn(Cc3cccc(Br)n3)c3ccccc3c2=O)cc1C(=O)N(C)C [Example 181] here?
**A.** The IC50 was 0.5 to 20 µM.

**Q.** How did the IC50 turn out when Cc1cc(C(=O)c2cn(Cc3cccc(Br)n3)c3ccccc3c2=O)ccc1Cl [Example 182] was run?
**A.** The IC50 was less than 0.1 µM.

**Q.** Which IC50 does the source give for COc1ccc(C(=O)c2cn(Cc3cccc(C)n3)c3ccccc3c2=O)cc1F [Example 183] here?
**A.** The IC50 was less than 0.1 µM.

**Q.** Cc1cccc(Cn2cc(C(=O)c3ccc(Cl)cc3)c(=O)c3ccccc32)n1 [Example 184] was tested. Which IC50 did it give?
**A.** The IC50 was less than 0.1 µM.

**Q.** For Cc1ccc(C(=O)c2cn(Cc3cccc(Br)n3)c3ccccc3c2=O)c(C)n1 [Example 185], which IC50 is on record?
**A.** Its IC50 is less than 0.1 µM.

**Q.** With CSc1ccc(C(=O)c2cn(Cc3cccc(Br)n3)c3ccccc3c2=O)cc1 [Example 186] as the compound, how does the IC50 read?
**A.** The IC50 was less than 0.1 µM.

**Q.** O=C(c1ccc(Cl)s1)c1cn(Cc2cccc(Br)n2)c2ccccc2c1=O [Example 187] was tested. Which IC50 did it give?
**A.** The IC50 was less than 0.1 µM.

**Q.** With O=C(c1ccc(Cl)nc1)c1cn(Cc2cccc(Br)n2)c2ccccc2c1=O [Example 188] as the compound, how does the IC50 read?
**A.** Its IC50 is less than 0.1 µM.

**Q.** For COc1ccc(C(=O)c2cn(Cc3cccc(Br)n3)c3ccccc3c2=O)cn1 [Example 189], which IC50 is on record?
**A.** The IC50 was less than 0.1 µM.

**Q.** How did the IC50 turn out when C[S+]([O-])c1ccc(C(=O)c2cn(Cc3cccc(Br)n3)c3ccccc3c2=O)cc1 (stereo not drawn) [Example 190] was run?
**A.** The IC50 was 0.1 to 0.5 µM.

**Q.** How did the IC50 turn out when Cc1cccc(Cn2cc(C(=O)c3cnc4c(c3)OCCO4)c(=O)c3cc(C)c(C)nc32)n1 [Example 191] was run?
**A.** The IC50 was 0.1 to 0.5 µM.

**Q.** How did the IC50 turn out when COc1ccc(C(=O)c2cn(Cc3cccc(C)n3)c3nc(C)c(C)cc3c2=O)cc1C [Example 192] was run?
**A.** The IC50 was 0.1 to 0.5 µM.

**Q.** COc1ccc(C(=O)c2cn(Cc3cccc(Br)n3)c3ncccc3c2=O)cc1OC [Example 193] was tested. Which IC50 did it give?
**A.** Its IC50 is less than 0.1 µM.

**Q.** COc1ccc(C(=O)c2cn(Cc3cccc(C#N)n3)c3ncccc3c2=O)cc1C [Example 194] was tested. Which IC50 did it give?
**A.** The IC50 was less than 0.1 µM.

**Q.** With COc1ccc(C(=O)c2cn(Cc3cccc(C(F)(F)F)n3)c3ncccc3c2=O)cc1C [Example 195] as the compound, how does the IC50 read?
**A.** Its IC50 is less than 0.1 µM.

**Q.** COc1ccc(C(=O)c2cn(Cc3cccc(C(F)(F)F)c3)c3ncccc3c2=O)cc1C [Example 196] was tested. Which IC50 did it give?
**A.** Its IC50 is less than 0.1 µM.

**Q.** Which IC50 does the source give for CN(C)c1ccc(C(=O)c2cn(Cc3cccc(Br)n3)c3ccccc3c2=O)cn1 [Example 197] here?
**A.** The IC50 was less than 0.1 µM.

**Q.** With COc1ncc(C(=O)c2cn(Cc3cccc(Br)n3)c3ccccc3c2=O)cc1C [Example 198] as the compound, how does the IC50 read?
**A.** The IC50 was less than 0.1 µM.

**Q.** Which IC50 does the source give for COc1ccc(C(=O)c2cn(Cc3cccc(C)n3)c3nc(C)c(C)cc3c2=O)cc1F [Example 199] here?
**A.** The IC50 was 0.5 to 20 µM.

**Q.** O=C(c1ccc(Cl)cc1)c1cn(Cc2cccc(Br)n2)c2ccccc2c1=O [Example 200] was tested. Which IC50 did it give?
**A.** The IC50 was less than 0.1 µM.

**Q.** COc1ccc(C(=O)c2cn(Cc3cccc(Br)n3)c3cccnc3c2=O)cc1C [Example 201] was tested. Which IC50 did it give?
**A.** Its IC50 is 0.5 to 20 µM.

**Q.** COc1ccc(C(=O)c2cn(Cc3cccc(C(F)(F)F)n3)c3ccccc3c2=O)cc1C [Example 202] was tested. Which IC50 did it give?
**A.** The IC50 was less than 0.1 µM.

**Q.** Which IC50 does the source give for Cc1cc(C(=O)c2cn(Cc3cccc(Br)n3)c3ccccc3c2=O)ccc1F [Example 203] here?
**A.** The IC50 was less than 0.1 µM.

**Q.** COc1cc(C(=O)c2cn(Cc3cccc(Br)n3)c3ccccc3c2=O)ccc1Cl [Example 204] was tested. Which IC50 did it give?
**A.** The IC50 was less than 0.1 µM.

**Q.** With Cc1cccc(Cn2cc(C(=O)c3ccccc3N3CCOCC3)c(=O)c3ccccc32)n1 [Example 205] as the compound, how does the IC50 read?
**A.** Its IC50 is less than 0.1 µM.

**Q.** Which IC50 does the source give for COc1ccc(C(=O)c2cn(Cc3cccc(C)n3)c3cccnc3c2=O)cc1C [Example 206] here?
**A.** Its IC50 is 0.5 to 20 µM.

**Q.** For COc1ccc(C(=O)c2cn(Cc3cccc(C#N)n3)c3ccccc3c2=O)cc1C [Example 207], which IC50 is on record?
**A.** Its IC50 is less than 0.1 µM.

**Q.** How did the IC50 turn out when Cc1cccc(Cn2cc(C(=O)c3cc(C)on3)c(=O)c3ccccc32)n1 [Example 208] was run?
**A.** The IC50 was 0.5 to 20 µM.

**Q.** COc1ccc(C(=O)c2cn(Cc3cccc(N)n3)c3ccccc3c2=O)cc1C [Example 209] was tested. Which IC50 did it give?
**A.** Its IC50 is 0.1 to 0.5 µM.

**Q.** With O=C(c1ccc(O)nc1)c1cn(Cc2cccc(Br)n2)c2ccccc2c1=O [Example 210] as the compound, how does the IC50 read?
**A.** The IC50 was 0.5 to 20 µM.

**Q.** With COc1ccc(C(=O)c2cn(Cc3cccc(C#N)n3)c3ccccc3c2=O)cc1F [Example 211] as the compound, how does the IC50 read?
**A.** Its IC50 is less than 0.1 µM.

**Q.** Which IC50 does the source give for CCc1ccc(C(=O)c2cn(Cc3cccc(C)n3)c3ccccc3c2=O)cn1 [Example 212] here?
**A.** Its IC50 is less than 0.1 µM.

**Q.** For Cc1ccc(C(=O)c2cn(Cc3cccc(O)n3)c3ccccc3c2=O)cc1C [Example 213], which IC50 is on record?
**A.** Its IC50 is 0.5 to 20 µM.

**Q.** Which IC50 does the source give for Cc1cccc(Cn2cc(C(=O)c3ccc(N(C)C)nc3)c(=O)c3ccccc32)n1 [Example 214] here?
**A.** The IC50 was 0.1 to 0.5 µM.

**Q.** With COc1ccc(C(=O)c2cn(Cc3cccc(Br)n3)c3ccc(C)nc3c2=O)cc1C [Example 215] as the compound, how does the IC50 read?
**A.** Its IC50 is less than 0.1 µM.

**Q.** Which IC50 does the source give for COc1ccc(C(=O)c2cn(Cc3cccc(C)n3)c3ccc(C)nc3c2=O)cc1C [Example 216] here?
**A.** Its IC50 is 0.5 to 20 µM.

**Q.** For COc1ccc(C(=O)c2cn(Cc3cccc(C(F)(F)F)n3)c3ccccc3c2=O)cc1F [Example 217], which IC50 is on record?
**A.** The IC50 was less than 0.1 µM.

**Q.** Which IC50 does the source give for CC(C)Oc1ccc(C(=O)c2cn(Cc3cccc(Br)n3)c3ccccc3c2=O)cc1 [Example 218] here?
**A.** Its IC50 is 0.1 to 0.5 µM.

**Q.** Which IC50 does the source give for Cc1ncccc1C(=O)c1cn(Cc2cccc(Br)n2)c2ccccc2c1=O [Example 219] here?
**A.** Its IC50 is 0.1 to 0.5 µM.

**Q.** With Cc1ccc(C(=O)c2cn(Cc3cccc(Br)n3)c3ccccc3c2=O)cn1 [Example 220] as the compound, how does the IC50 read?
**A.** Its IC50 is less than 0.1 µM.

**Q.** How did the IC50 turn out when Cc1ccc(C(=O)c2cn(Cc3cccc(C)n3)c3ccccc3c2=O)nc1 [Example 221] was run?
**A.** The IC50 was 0.5 to 20 µM.

**Q.** With Nc1ccc(C(=O)c2cn(Cc3cccc(Br)n3)c3ccccc3c2=O)cn1 [Example 223] as the compound, how does the IC50 read?
**A.** Its IC50 is 0.5 to 20 µM.

**Q.** Which IC50 does the source give for O=C(c1ccc(C(F)(F)F)nc1)c1cn(Cc2cccc(Br)c2)c2ccccc2c1=O [Example 224] here?
**A.** Its IC50 is 0.5 to 20 µM.

**Q.** With COc1ccc(C(=O)c2cn(Cc3cncc(C)n3)c3ccccc3c2=O)cc1F [Example 225] as the compound, how does the IC50 read?
**A.** The IC50 was less than 0.1 µM.

**Q.** For COc1ccc(C(=O)c2cn(Cc3cccc(Br)n3)c3nc(C(F)(F)F)ccc3c2=O)cc1F [Example 226], which IC50 is on record?
**A.** The IC50 was 0.5 to 20 µM.

**Q.** With Cc1ccc(C(=O)c2cn(Cc3cccc(Br)c3)c3ccccc3c2=O)cn1 [Example 227] as the compound, how does the IC50 read?
**A.** Its IC50 is less than 0.1 µM.

**Q.** How did the IC50 turn out when N#Cc1cccc(Cn2cc(C(=O)c3ccc4c(c3)OCCO4)c(=O)c3ccccc32)n1 [Example 228] was run?
**A.** The IC50 was less than 0.1 µM.

**Q.** O=C(c1ccc2c(c1)OCCO2)c1cn(Cc2cccc(C(F)(F)F)n2)c2ccccc2c1=O [Example 229] was tested. Which IC50 did it give?
**A.** The IC50 was 0.1 to 0.5 µM.

**Q.** For Nc1cccc(Cn2cc(C(=O)c3ccc4c(c3)OCCO4)c(=O)c3ccccc32)n1 [Example 230], which IC50 is on record?
**A.** The IC50 was 0.1 to 0.5 µM.

**Q.** How did the IC50 turn out when O=C(c1ccc2c(c1)OCCO2)c1cn(Cc2cccc(Br)c2)c2ccccc2c1=O [Example 231] was run?
**A.** The IC50 was less than 0.1 µM.

**Q.** For O=C(c1ccc2c(c1)OCCO2)c1cn(Cc2cccc(C(F)(F)F)c2)c2ccccc2c1=O [Example 232], which IC50 is on record?
**A.** The IC50 was 0.1 to 0.5 µM.

**Q.** Which IC50 does the source give for O=C(c1ccc2c(c1)OCCO2)c1cn(Cc2cccc(Cl)c2)c2ccccc2c1=O [Example 233] here?
**A.** The IC50 was less than 0.1 µM.

**Q.** With COc1ccc(C(=O)c2cn(Cc3cccc(Cl)c3)c3ccc(C)nc3c2=O)cc1C [Example 234] as the compound, how does the IC50 read?
**A.** Its IC50 is 0.1 to 0.5 µM.

**Q.** CCN(CC)c1ccc(C(=O)c2cn(Cc3cccc(Br)c3)c3ccccc3c2=O)cn1 [Example 235] was tested. Which IC50 did it give?
**A.** Its IC50 is less than 0.1 µM.

**Q.** With O=C(c1ccc(Cl)nc1)c1cn(Cc2cccc(Cl)c2)c2ccccc2c1=O [Example 236] as the compound, how does the IC50 read?
**A.** Its IC50 is 0.5 to 20 µM.

**Q.** Which IC50 does the source give for COc1ccc(C(=O)c2cn(Cc3cccc(Br)n3)c3ccc(C)nc3c2=O)cc1F [Example 237] here?
**A.** Its IC50 is 0.5 to 20 µM.

**Q.** COc1ccc(C(=O)c2cn(Cc3cccc(Br)c3)c3ccc(C)nc3c2=O)cc1F [Example 238] was tested. Which IC50 did it give?
**A.** The IC50 was 0.5 to 20 µM.

**Q.** With COc1ccc(C(=O)c2cn(Cc3cccc(Br)c3)c3ccccc3c2=O)cn1 [Example 239] as the compound, how does the IC50 read?
**A.** The IC50 was 0.1 to 0.5 µM.

Source: patent US7557213B2, “Substituted quinolones and methods of use” (ChemoCentryx, Inc., priority 2005, dated 2009)
